pIC50: −log10 of the molar value.
Key:
[1] = target: T1, enzyme FAAH (Fatty Acid Amido Hydrolase) (Mus musculus, UniProt O08914); experiment: radioenzymatic test of FAAH inhibition (hydrolysis of anandamide [ethanolamine 1-3H], mouse brain membrane homogenates); format: biochemical; conditions: anandamide 10 μM, 15 minutes at 25° C., read-out: IC50 (concentration inhibiting 50% of the control enzymatic activity of FAAH)
T1 construct: The membrane homogenates are prepared extemporaneously by homogenizing the tissues with a Polytron machine; from tissue; host or cells: mouse brain (minus cerebellum) membrane homogenate
T1 sequence (O08914 1-579): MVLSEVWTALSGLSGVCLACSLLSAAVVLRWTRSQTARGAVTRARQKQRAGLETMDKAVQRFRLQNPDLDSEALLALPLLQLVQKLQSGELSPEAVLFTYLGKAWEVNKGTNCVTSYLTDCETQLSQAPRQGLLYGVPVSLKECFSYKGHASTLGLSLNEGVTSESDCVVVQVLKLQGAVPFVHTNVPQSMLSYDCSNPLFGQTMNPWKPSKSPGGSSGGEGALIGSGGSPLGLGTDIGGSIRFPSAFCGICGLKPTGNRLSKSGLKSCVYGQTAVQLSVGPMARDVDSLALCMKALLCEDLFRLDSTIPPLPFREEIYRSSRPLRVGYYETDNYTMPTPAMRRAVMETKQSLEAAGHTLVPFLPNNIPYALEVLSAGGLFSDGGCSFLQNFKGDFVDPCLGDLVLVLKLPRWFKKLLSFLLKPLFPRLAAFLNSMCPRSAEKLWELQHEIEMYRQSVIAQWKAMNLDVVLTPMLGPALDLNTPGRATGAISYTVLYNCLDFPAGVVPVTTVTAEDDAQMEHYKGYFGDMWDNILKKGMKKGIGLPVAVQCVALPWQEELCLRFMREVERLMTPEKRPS
Procedure: The compounds of the invention were subjected to pharmacological tests to determine their inhibitory effect on the enzyme FAAH (Fatty Acid Amido Hydrolase).
Thus, mouse brains (minus the cerebellum) are removed and stored at −80° C. The membrane homogenates are prepared extemporaneously by homogenizing the tissues with a Polytron machine in 10 mM Tris-HCl buffer (pH 8) containing 150 mM NaCl and 1 mM EDTA. The enzymatic reaction is then performed in 70 μl of buffer containing fatty-acid-free bovine serum albumin (1 mg/ml). The various test compounds at different concentrations, anandamide [ethanolamine 1-^3H] (specific activity of 15-20 Ci/mmol) diluted to 10 μM with cold anandamide, and the membrane preparation (400 μg of thawed tissue per test) are successively added. After 15 minutes at 25° C., the enzymatic reaction is quenched by adding 140 μL of chloroform/methanol (2:1). The mixture is stirred for 10 minutes and then centrifuged for 15 minutes at 3500×g. An aliquot (30 μL) of the aqueous phase containing the ethanolamine [1-^3H] is counted by liquid scintillation.

male OF1 mice = experiment: test of analgesia: abdominal stretching induced by PBQ (phenylbenzoquinone) i.p.; format: in vivo; conditions: 1 mg/kg p.o. at 2 hours, PBQ 2 mg/kg i.p.
Procedure: It is thus seen that the compounds according to the invention have inhibitory activity on the enzyme FAAH. The in vivo activity of the compounds of the invention was evaluated in a test of analgesia.
Thus, the intraperitoneal (i.p.) administration of PBQ (phenylbenzoquinone, 2 mg/kg in a 0.9% sodium chloride solution containing 5% ethanol) to male OF1 mice weighing 25 to 30 g causes abdominal stretching, on average 30 twists or contractions in the period from 5 to 15 minutes after injection. The test compounds are administered orally as a 0.5% suspension in Tween 80, 60 minutes or 120 minutes before the administration of PBQ. Under these conditions, the most powerful compounds of the invention reduce the number of stretches induced by PBQ by 35 to 70%, in a dosage range of between 1 and 30 mg/kg.

Row | SMILES | melting point | pIC50 [1] | Reduction of the number of stretches (%) (male OF1 mice)
1 | Cc1cc(F)cc2c1OCCC2 [Compound 15] | 189 to 190 °C | – | –
2 | CNC(=O)COC(=O)N1CCN(c2ccc(-c3ccc(Cl)cc3)cc2)CC1 [Compound 34] | – | 7.70 | –
3 | Cc1ccc(-c2ccc([N+](=O)[O-])cc2)cc1 [Compound 36] | 197 to 198 °C | – | –
4 | CNC(=O)COC(=O)N1CCN(c2ccc(-c3cccc(C(F)(F)F)c3)cc2)CC1 [Compound 37, 2-(methylamino)-2-oxoethyl 4-[3′-(trifluoromethyl)-4-biphenylyl]-1-piperazinecarboxylate] | 129 to 130 °C | 6.72 | −57 (a) %
5 | CCOc1ccc(-c2ccc(N3CCN(C(=O)OCC(=O)NC)CC3)cc2)cc1 [Compound 43] | – | 7.36 | –
6 | CNC(=O)COC(=O)N1CCN(c2ccc(-c3ccc(OC(F)(F)F)cc3)cc2)CC1 [Compound 44, 2-(methylamino)-2-oxoethyl 4-{4′-[(trifluoromethyl)oxy]-4-biphenyl}-1-piperazinecarboxylate] | 187 to 189 °C | 8.15 | −53 (a) %
7 | CNC(=O)COC(=O)N1CCN(c2ccc(CC(C)C)cn2)CC1 [Compound 63, 2-(methylamino)-2-oxoethyl 4-[5-(2-methylpropyl)-2-pyridyl]-1-piperazinecarboxylate] | 127 to 129 °C | – | –
8 | CNC(=O)COC(=O)N1CCN(c2ccc(CC(C)C)nc2)CC1 [Compound 66, 2-(methylamino)-2-oxoethyl 4-[6-(2-methylpropyl)-3-pyridyl]-1-piperazinecarboxylate] | 87 to 89 °C | – | –
9 | Cc1ccc(-c2ccc(Cl)cc2)cn1 [Compound 75] | 203 to 206 °C | – | –
10 | CNC(=O)COC(=O)N1CCN(c2ccc(-c3cccc(C(F)(F)F)c3)cn2)CC1 [Compound 76, 2-(methylamino)-2-oxoethyl 4-{5-[3-(trifluoromethyl)phenyl]-2-pyridyl}-1-piperazinecarboxylate] | 158 to 160 °C | 6.54 | −47 (a) %
11 | CNC(=O)COC(=O)N1CCN(c2ccc(-c3ccc(C(F)(F)F)cc3)cn2)CC1 [Compound 79, 2-(methylamino)-2-oxoethyl 4-{5-[4-(trifluoromethyl)phenyl]-2-pyridyl}-1-piperazinecarboxylate] | 206 to 209 °C | – | –
12 | CNC(=O)COC(=O)N1CCN(c2ccc(-c3ccc(OC(F)(F)F)cc3)cn2)CC1 [Compound 83, 2-(methylamino)-2-oxoethyl 4-(5-{4-[(trifluoromethyl)oxy]phenyl}-2-pyridyl)-1-piperazinecarboxylate] | 188 to 190 °C | 7.92 | –
13 | CNC(=O)COC(=O)N1CCN(c2ccc(-c3cccc(C(F)(F)F)c3)nc2)CC1 [Compound 85, 2-(methylamino)-2-oxoethyl 4-{6-[3-(trifluoromethyl)phenyl]-3-pyridyl}-1-piperazinecarboxylate] | 146 to 150 °C | – | –
14 | NC(=O)COC(=O)N1CCN(c2ccc(-c3cccc(C(F)(F)F)c3)nc2)CC1 [Compound 86, 2-amino-2-oxoethyl 4-{6-[3-(trifluoromethyl)phenyl]-3-pyridyl}-1-piperazinecarboxylate] | 155 to 157 °C | – | –
15 | CNC(=O)COC(=O)N1CCN(c2ccc(-c3cccc(C(F)(F)F)c3)nn2)CC1 [Compound 87, 2-(methylamino)-2-oxoethyl 4-{6-[3-(trifluoromethyl)phenyl]-3-pyridazinyl}-1-piperazinecarboxylate] | 151 to 153 °C | – | –
16 | Cc1ccc(-c2ccc(Cl)cc2)cn1 [Compound 98] | 204 to 206 °C | – | –
17 | CNC(=O)COC(=O)N1CCCN(c2ccc(-c3ccc(OC(F)(F)F)cc3)cn2)CC1 [Compound 103, 2-(methylamino)-2-oxoethyl 4-(5-{4-[(trifluoromethyl)oxy]phenyl}-2-pyridyl)-1,4-diazepane-1-carboxylate] | 191 to 193 °C | – | –

Source: patent publication US8114866B2, “Derivatives of 1-piperazine- and 1-homopiperazine-carboxylates, preparation method thereof and use of same as inhibitors of the FAAH enzyme” (Sanofi-Aventis, priority 2003, dated 2012)
